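Values below derive from 48-hour exposures of cells grown in 96-well plates, with endpoints linearly interpolated between the two concentrations bracketing the appropriate inhibition level. At the GI50, growth is halved.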 Active and inactive are the calls of the source. No stated cut-off is given here; in the data, active = GI50 up to about 1.1 µM and inactive = higher.
Key:
Experiment in all cases: inhibition of tumour cell growth, NCI panel, 48 h
Malme-3M = tested on: Malme-3M
786-0 = tested on: 786-0
COLO 205 = tested on: COLO 205
TK-10 = tested on: TK-10
HCT-15 = tested on: HCT-15
SN12C = tested on: SN12C
IGROV-1 = tested on: IGROV-1
PC-3 = tested on: PC-3
OVCAR-5 = tested on: OVCAR-5
NCI-H522 = tested on: NCI-H522
HT-29 = tested on: HT-29
KM12 = tested on: KM12
RPMI-8226 = tested on: RPMI-8226
HOP-92 = tested on: HOP-92
LOX IMVI = tested on: LOX IMVI
HOP-62 = tested on: HOP-62
MDA-MB-435 = tested on: MDA-MB-435
MOLT-4 = tested on: MOLT-4
T47D = tested on: T47D

SMILES	GI50 (Malme-3M)	GI50 (786-0)	GI50 (COLO 205)	GI50 (TK-10)	GI50 (HCT-15) [µM]	GI50 (SN12C)	GI50 (IGROV-1)	GI50 (PC-3)	GI50 (OVCAR-5)	GI50 (NCI-H522)	GI50 (HT-29)	GI50 (KM12)	GI50 (RPMI-8226)	GI50 (HOP-92)	GI50 (LOX IMVI)	GI50 (HOP-62)	GI50 (MDA-MB-435)	GI50 (MOLT-4)	GI50 (T47D)
COc1cc(C2c3cc4c(cc3[C@@H](Nc3ccc(N)cc3)C3COC(=O)[C@H]23)OCO4)cc(OC)c1O (some centres undefined)	2.13 µM (inactive)	0.908 µM (active)	7.85 µM (inactive)	3.64 µM (inactive)	2.21	0.711 µM (active)	3.35 µM (inactive)	0.446 µM (active)	4.08 µM (inactive)	2.22 µM (inactive)	3.64 µM (inactive)	3.43 µM (inactive)	0.425 µM (active)	0.948 µM (active)	0.395 µM (active)	0.363 µM (active)	10.8 µM (inactive)	–	–
O=[N+]([O-])c1c(/C=N/c2ccccc2)oc(-c2ccc3c(c2)OCO3)c1-c1ccc2c(c1)OCO2	> 100 µM (inactive)	> 100 µM (inactive)	> 100 µM (inactive)	> 100 µM (inactive)	> 100	> 100 µM (inactive)	> 100 µM (inactive)	–	> 100 µM (inactive)	> 100 µM (inactive)	> 100 µM (inactive)	> 100 µM (inactive)	> 100 µM (inactive)	65.6 µM (inactive)	> 100 µM (inactive)	> 100 µM (inactive)	–	> 100 µM (inactive)	–
O=C1c2cccc3cc([N+](=O)[O-])cc(c23)C(=O)N1NC1=NCCN1	> 100 µM (inactive)	> 100 µM (inactive)	> 100 µM (inactive)	> 100 µM (inactive)	> 100	> 100 µM (inactive)	> 100 µM (inactive)	–	> 100 µM (inactive)	> 100 µM (inactive)	> 100 µM (inactive)	> 100 µM (inactive)	> 100 µM (inactive)	> 100 µM (inactive)	> 100 µM (inactive)	> 100 µM (inactive)	–	> 100 µM (inactive)	–
CC(C)C(=O)Nc1nc2[nH]cnc2c(=O)[nH]1	> 100 µM (inactive)	> 100 µM (inactive)	> 100 µM (inactive)	> 100 µM (inactive)	> 100	> 100 µM (inactive)	> 100 µM (inactive)	–	> 100 µM (inactive)	> 100 µM (inactive)	> 100 µM (inactive)	> 100 µM (inactive)	> 100 µM (inactive)	> 100 µM (inactive)	> 100 µM (inactive)	> 100 µM (inactive)	–	> 100 µM (inactive)	–
CC(C)(C)c1cc(-c2c3nc(c(-c4cc(C(C)(C)C)cc(C(C)(C)C)c4)c4ccc([nH]4)c(-c4cc(C(C)(C)C)cc(C(C)(C)C)c4)c4nc(c(-c5cc(C(C)(C)C)cc(C(C)(C)C)c5)c5ccc2[nH]5)C=C4)C=C3)cc(C(C)(C)C)c1	> 100 µM (inactive)	> 100 µM (inactive)	> 100 µM (inactive)	> 100 µM (inactive)	> 100	> 100 µM (inactive)	> 100 µM (inactive)	–	> 100 µM (inactive)	> 100 µM (inactive)	> 100 µM (inactive)	> 100 µM (inactive)	> 100 µM (inactive)	> 100 µM (inactive)	> 100 µM (inactive)	> 100 µM (inactive)	–	> 100 µM (inactive)	–
C=C(C)[C@H](O)C(O)CC(C)[C@@H]1CCC23CC12CCC1[C@@]2(C)CCC(OC(C)=O)C(C)(C)C2CC(OC2OC(COC(C)=O)C(O)C(O)C2O)[C@]13C (some centres undefined)	7.91 µM (inactive)	7.4 µM (inactive)	6.61 µM (inactive)	6.55 µM (inactive)	4.86	6.75 µM (inactive)	3.78 µM (inactive)	–	7.69 µM (inactive)	4.35 µM (inactive)	3.06 µM (inactive)	5.47 µM (inactive)	1.5 µM (inactive)	5.37 µM (inactive)	4.86 µM (inactive)	6.92 µM (inactive)	–	2.34 µM (inactive)	–
CCCCSN1C(=O)c2ccccc2C1=S	63.7 µM (inactive)	34.1 µM (inactive)	62.4 µM (inactive)	> 100 µM (inactive)	> 100	71.3 µM (inactive)	> 100 µM (inactive)	–	> 100 µM (inactive)	> 10 µM (inactive)	29.4 µM (inactive)	37.8 µM (inactive)	21 µM (inactive)	41.1 µM (inactive)	54.2 µM (inactive)	> 100 µM (inactive)	–	18.5 µM (inactive)	–
C(=C\c1ccc2ccccc2c1Nc1ccccc1)/c1ccccc1	33.2 µM (inactive)	17 µM (inactive)	> 71.3 µM (inactive)	44.5 µM (inactive)	> 100	33.6 µM (inactive)	31 µM (inactive)	–	> 100 µM (inactive)	41.6 µM (inactive)	29.6 µM (inactive)	51.3 µM (inactive)	25.1 µM (inactive)	18.2 µM (inactive)	> 66.4 µM (inactive)	20.1 µM (inactive)	–	15.2 µM (inactive)	–
CCNC1=Nc2ccc(Cl)cc2C(c2ccccc2)=NN1	16.9 µM (inactive)	17.8 µM (inactive)	16.3 µM (inactive)	28.4 µM (inactive)	16.9	32.4 µM (inactive)	22.4 µM (inactive)	–	21.8 µM (inactive)	14.6 µM (inactive)	15.8 µM (inactive)	12.9 µM (inactive)	29 µM (inactive)	24.4 µM (inactive)	18.9 µM (inactive)	24.6 µM (inactive)	–	25.2 µM (inactive)	–
Cc1ccc(NC(=O)C2C3C=CC(O3)C2C(=O)O)cc1 (centres undefined)	> 100 µM (inactive)	53.3 µM (inactive)	45 µM (inactive)	> 100 µM (inactive)	> 100	> 100 µM (inactive)	> 100 µM (inactive)	–	> 100 µM (inactive)	> 100 µM (inactive)	19.8 µM (inactive)	–	24.3 µM (inactive)	> 100 µM (inactive)	23.7 µM (inactive)	> 100 µM (inactive)	–	> 100 µM (inactive)	–
CCc1cccc(C)c1NC(=O)NS(=O)(=O)c1ccc(C)cc1	> 100 µM (inactive)	> 100 µM (inactive)	> 100 µM (inactive)	> 100 µM (inactive)	> 100	> 100 µM (inactive)	> 100 µM (inactive)	–	> 100 µM (inactive)	> 100 µM (inactive)	–	> 100 µM (inactive)	> 100 µM (inactive)	> 100 µM (inactive)	> 100 µM (inactive)	> 100 µM (inactive)	–	> 100 µM (inactive)	–
c1ccc(CCN2CCc3[nH]c4ccccc4c3C2)cc1	17.1 µM (inactive)	17.1 µM (inactive)	> 10 µM (inactive)	24.3 µM (inactive)	23.4	27.9 µM (inactive)	23.9 µM (inactive)	–	20 µM (inactive)	–	14.1 µM (inactive)	17.3 µM (inactive)	> 10 µM (inactive)	11.9 µM (inactive)	19.5 µM (inactive)	19.5 µM (inactive)	17.4 µM (inactive)	26.5 µM (inactive)	20.1 µM (inactive)
O=C(O)COc1ccc(C(=O)/C(SS/C(C(=O)c2ccc(OCC(=O)O)c(Cl)c2Cl)=C2\C=C(c3ccc(Cl)cc3)SS2)=C2/C=C(c3ccc(Cl)cc3)SS2)c(Cl)c1Cl	33.7 µM (inactive)	13.5 µM (inactive)	0.339 µM (active)	24.7 µM (inactive)	5.78	0.319 µM (active)	13.3 µM (inactive)	–	30.1 µM (inactive)	2.18 µM (inactive)	34.5 µM (inactive)	16 µM (inactive)	22.3 µM (inactive)	4.22 µM (inactive)	3.93 µM (inactive)	39.8 µM (inactive)	–	3.58 µM (inactive)	–
CCN(CC)CCOc1ccc(C(=C2CCCCC2)c2ccc(OCCN(CC)CC)cc2)cc1	1.72 µM (inactive)	1.39 µM (inactive)	1.34 µM (inactive)	1.5 µM (inactive)	1.54	1.66 µM (inactive)	1.71 µM (inactive)	–	1.79 µM (inactive)	1.76 µM (inactive)	1.1 µM (active)	1.27 µM (inactive)	0.7 µM (active)	2.02 µM (inactive)	1.23 µM (inactive)	1.77 µM (inactive)	–	0.612 µM (active)	–
CN(C)P(=O)(Oc1occc1C(O)Cc1ccccc1)N(C)C (centres undefined)	> 100 µM (inactive)	> 100 µM (inactive)	> 100 µM (inactive)	> 100 µM (inactive)	> 100	> 100 µM (inactive)	–	> 100 µM (inactive)	> 100 µM (inactive)	> 100 µM (inactive)	–	> 100 µM (inactive)	> 100 µM (inactive)	–	> 100 µM (inactive)	> 100 µM (inactive)	> 100 µM (inactive)	–	> 100 µM (inactive)
c1ccc([B-]23Oc4ccccc4[NH+]2c2ccccc2O3)cc1 (centres undefined)	> 100 µM (inactive)	> 100 µM (inactive)	49 µM (inactive)	47.2 µM (inactive)	–	> 100 µM (inactive)	> 100 µM (inactive)	–	> 100 µM (inactive)	16.2 µM (inactive)	> 100 µM (inactive)	77.6 µM (inactive)	23.9 µM (inactive)	> 100 µM (inactive)	62.2 µM (inactive)	> 100 µM (inactive)	–	25.8 µM (inactive)	–
O=[N+]([O-])c1ccccc1[S+]([O-])c1ccccc1 (centres undefined)	> 100 µM (inactive)	> 100 µM (inactive)	–	> 100 µM (inactive)	38.7	75.5 µM (inactive)	68.2 µM (inactive)	–	> 100 µM (inactive)	65.6 µM (inactive)	62.7 µM (inactive)	87.9 µM (inactive)	52.5 µM (inactive)	71 µM (inactive)	21.1 µM (inactive)	> 100 µM (inactive)	–	57 µM (inactive)	–
